The structures appear in SMILES notation. Values joined by “and” are separate entries in the source; they are usually repeats but may differ in a detail not shown here. Equal entries are not always repeated. Square brackets hold non-standard residues; d marks the D form. Peptide text beside a SMILES is read from it. NMeF = CN[C@@H](Cc1ccccc1)C(=O)O

Experimental findings from BindingDB's records for doi:10.1124/jpet.102.040162 (Sanofi-SynthÉLabo Recherche, 2002) are described below.

The target in experiment [1] is T1, Neuromedin-K receptor (Homo sapiens, UniProt P29371).
T1 sequence (P29371 whole entry): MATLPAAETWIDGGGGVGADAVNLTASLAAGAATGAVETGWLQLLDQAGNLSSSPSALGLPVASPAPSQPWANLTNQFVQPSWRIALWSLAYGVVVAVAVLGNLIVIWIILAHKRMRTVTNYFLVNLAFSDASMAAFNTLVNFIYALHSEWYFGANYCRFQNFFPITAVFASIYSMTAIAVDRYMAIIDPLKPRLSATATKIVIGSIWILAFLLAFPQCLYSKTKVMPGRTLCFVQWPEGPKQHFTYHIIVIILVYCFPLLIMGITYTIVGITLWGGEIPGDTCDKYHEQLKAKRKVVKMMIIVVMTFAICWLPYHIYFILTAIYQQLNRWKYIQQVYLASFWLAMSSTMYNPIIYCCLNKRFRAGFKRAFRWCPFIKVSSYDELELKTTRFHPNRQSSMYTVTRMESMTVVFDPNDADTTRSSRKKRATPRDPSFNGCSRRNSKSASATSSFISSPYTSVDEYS

In experiment [2] the target is T2, Neuromedin-K receptor (Meriones unguiculatus, UniProt Q2YHR0).
T2 sequence (Q2YHR0 whole entry): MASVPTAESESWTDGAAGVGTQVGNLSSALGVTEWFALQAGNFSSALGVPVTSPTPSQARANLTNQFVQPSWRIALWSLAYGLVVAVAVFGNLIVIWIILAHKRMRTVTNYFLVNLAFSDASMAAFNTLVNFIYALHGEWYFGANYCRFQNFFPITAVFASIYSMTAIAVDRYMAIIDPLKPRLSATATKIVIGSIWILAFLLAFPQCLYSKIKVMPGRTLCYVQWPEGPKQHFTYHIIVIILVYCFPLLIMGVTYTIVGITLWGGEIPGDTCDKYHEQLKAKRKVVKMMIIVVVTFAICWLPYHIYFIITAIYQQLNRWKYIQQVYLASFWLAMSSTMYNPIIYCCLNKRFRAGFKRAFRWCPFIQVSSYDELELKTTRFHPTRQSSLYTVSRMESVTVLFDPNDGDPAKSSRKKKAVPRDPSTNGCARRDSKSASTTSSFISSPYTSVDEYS

Experiment [3] has as its target T3, Neuromedin-K receptor (Cavia porcellus, UniProt P30098).
T3 sequence (P30098 whole entry): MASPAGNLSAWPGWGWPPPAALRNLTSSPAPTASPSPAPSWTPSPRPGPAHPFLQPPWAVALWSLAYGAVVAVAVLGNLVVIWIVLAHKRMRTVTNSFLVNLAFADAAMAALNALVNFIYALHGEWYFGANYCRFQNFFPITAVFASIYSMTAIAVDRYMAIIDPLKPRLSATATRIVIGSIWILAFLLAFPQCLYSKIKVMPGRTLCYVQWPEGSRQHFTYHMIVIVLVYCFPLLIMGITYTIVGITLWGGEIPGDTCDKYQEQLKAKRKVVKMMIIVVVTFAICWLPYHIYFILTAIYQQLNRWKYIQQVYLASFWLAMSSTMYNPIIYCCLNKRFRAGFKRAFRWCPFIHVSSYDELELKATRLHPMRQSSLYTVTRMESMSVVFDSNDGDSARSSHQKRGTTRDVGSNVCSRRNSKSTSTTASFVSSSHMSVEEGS

In experiment [4] the target is T4, Neuromedin-K receptor (Mus musculus, UniProt P47937).
T4 sequence (P47937 whole entry): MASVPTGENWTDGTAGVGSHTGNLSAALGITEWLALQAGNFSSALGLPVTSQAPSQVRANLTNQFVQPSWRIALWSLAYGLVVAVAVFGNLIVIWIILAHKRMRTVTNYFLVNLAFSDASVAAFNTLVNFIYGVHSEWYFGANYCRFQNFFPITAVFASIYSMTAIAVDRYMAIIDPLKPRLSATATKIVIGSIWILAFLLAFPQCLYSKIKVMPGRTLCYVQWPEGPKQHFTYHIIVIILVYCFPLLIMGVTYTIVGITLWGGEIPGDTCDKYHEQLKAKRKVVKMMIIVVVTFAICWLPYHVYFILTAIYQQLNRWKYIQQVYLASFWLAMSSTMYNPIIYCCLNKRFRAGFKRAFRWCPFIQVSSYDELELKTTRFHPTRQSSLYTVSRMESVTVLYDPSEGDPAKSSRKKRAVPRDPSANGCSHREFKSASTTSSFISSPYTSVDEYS

For experiment [5], the target named is T5, Substance-K receptor (Cavia porcellus, UniProt Q64077).
T5 sequence (Q64077 whole entry): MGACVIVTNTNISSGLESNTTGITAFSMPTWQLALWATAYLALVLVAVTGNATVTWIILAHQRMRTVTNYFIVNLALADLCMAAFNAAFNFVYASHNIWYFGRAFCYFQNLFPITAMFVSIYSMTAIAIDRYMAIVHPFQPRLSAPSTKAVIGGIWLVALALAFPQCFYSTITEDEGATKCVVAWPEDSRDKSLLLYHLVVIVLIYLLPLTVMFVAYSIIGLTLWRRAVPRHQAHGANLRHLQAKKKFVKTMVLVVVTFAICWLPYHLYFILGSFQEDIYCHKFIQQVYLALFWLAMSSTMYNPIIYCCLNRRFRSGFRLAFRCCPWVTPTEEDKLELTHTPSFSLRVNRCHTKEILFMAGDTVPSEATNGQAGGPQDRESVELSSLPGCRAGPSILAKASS

Experiment [6] concerns the target Substance-P receptor (Rattus norvegicus, UniProt P14600).
For experiment [7], the target named is T6, Substance-K receptor (Homo sapiens, UniProt P21452).
T6 sequence (P21452 whole entry): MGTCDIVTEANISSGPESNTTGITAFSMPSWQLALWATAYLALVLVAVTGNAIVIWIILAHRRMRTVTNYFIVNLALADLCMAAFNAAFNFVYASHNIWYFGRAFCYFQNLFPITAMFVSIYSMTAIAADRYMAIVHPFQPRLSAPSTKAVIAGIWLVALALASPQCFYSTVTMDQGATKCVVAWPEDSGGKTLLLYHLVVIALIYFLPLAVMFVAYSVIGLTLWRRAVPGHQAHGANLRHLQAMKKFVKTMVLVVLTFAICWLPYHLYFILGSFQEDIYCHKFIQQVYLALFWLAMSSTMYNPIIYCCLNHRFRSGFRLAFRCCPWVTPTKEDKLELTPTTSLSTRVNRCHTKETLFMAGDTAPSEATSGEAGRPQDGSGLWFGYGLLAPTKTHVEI

Experiment [8] deals with Substance-P receptor (Cavia porcellus, UniProt P30547).
Substance-P receptor (Cavia porcellus, UniProt P30547), sequence (P30547 whole entry): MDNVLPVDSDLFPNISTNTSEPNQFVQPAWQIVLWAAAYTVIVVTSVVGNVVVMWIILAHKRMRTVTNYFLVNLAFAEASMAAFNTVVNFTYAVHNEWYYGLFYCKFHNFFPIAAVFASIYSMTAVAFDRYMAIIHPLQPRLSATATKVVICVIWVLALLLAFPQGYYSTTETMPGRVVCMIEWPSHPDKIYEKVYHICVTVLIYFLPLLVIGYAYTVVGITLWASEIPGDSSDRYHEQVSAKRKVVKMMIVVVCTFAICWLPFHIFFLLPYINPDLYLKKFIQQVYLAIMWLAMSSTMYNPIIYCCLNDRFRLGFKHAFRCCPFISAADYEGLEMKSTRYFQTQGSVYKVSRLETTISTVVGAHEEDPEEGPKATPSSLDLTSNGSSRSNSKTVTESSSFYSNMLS
For experiment [9], the target named is T7, Substance-K receptor (Rattus norvegicus, UniProt P16610).
T7 sequence (P16610 whole entry): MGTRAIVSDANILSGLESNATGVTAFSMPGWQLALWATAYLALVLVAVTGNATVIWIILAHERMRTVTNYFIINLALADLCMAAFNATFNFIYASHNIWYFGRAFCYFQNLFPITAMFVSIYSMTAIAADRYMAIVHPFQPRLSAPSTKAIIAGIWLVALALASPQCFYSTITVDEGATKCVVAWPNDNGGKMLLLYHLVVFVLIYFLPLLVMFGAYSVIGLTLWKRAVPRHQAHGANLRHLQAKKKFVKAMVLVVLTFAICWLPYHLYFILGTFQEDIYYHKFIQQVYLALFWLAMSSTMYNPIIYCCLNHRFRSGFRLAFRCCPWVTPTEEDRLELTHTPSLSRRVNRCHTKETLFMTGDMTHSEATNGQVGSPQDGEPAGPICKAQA

Substance-P receptor (Rattus norvegicus, UniProt P14600), sequence (P14600 whole entry): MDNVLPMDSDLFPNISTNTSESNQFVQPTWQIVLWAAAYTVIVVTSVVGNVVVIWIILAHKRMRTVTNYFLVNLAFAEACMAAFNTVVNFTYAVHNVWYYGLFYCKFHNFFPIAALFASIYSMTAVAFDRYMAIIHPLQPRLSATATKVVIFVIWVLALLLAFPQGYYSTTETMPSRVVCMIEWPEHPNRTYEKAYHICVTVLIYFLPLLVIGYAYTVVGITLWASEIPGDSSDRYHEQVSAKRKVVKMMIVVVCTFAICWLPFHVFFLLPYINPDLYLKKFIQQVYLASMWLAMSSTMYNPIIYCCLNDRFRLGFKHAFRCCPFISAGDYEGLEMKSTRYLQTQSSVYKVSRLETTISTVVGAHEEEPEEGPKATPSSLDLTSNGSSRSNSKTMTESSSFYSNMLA

A word on the Ki: it is the dissociation constant of the complex between target and ligand, obtained from inhibition or displacement. A lower Ki goes with a stronger hold on the target. With `CSCC[C@H](NC(=O)[C@H](CC(C)C)NC(=O)CNC(=O)[C@H](Cc1ccccc1)N(C)C(=O)[C@H](Cc1ccccc1)NC(=O)[C@H](Cc1ccccc1)NC(=O)[C@H](CC(=O)O)NC(=O)[C@H](Cc1cnc[nH]1)NC(=O)[C@H](CCSC)NC(=O)[C@@H](N)CC(=O)O)C(N)=O` [NKB [MePhe7]] (H-DMHDFF[NMeF]GLM-NH2), the Ki at Neuromedin-K receptor [1] is 0.34 nM; on Neuromedin-K receptor [2], 0.16 nM; on Neuromedin-K receptor [3], 0.43 nM; at Neuromedin-K receptor [4], 0.053 nM.

On Substance-K receptor [5], `CSCC[C@H](NC(=O)[C@H](CC(C)C)NC(=O)CNC(=O)[C@@H](NC(=O)[C@H](Cc1ccccc1)NC(=O)[C@H](CO)NC(=O)[C@H](CC(=O)O)NC(=O)[C@@H](NC(=O)[C@H](CCCCN)NC(=O)[C@@H](N)Cc1cnc[nH]1)[C@@H](C)O)C(C)C)C(N)=O` [Neurokinin alpha] returned a Ki of 2.3 nM.

In the case of `CC(C)(C(N)=O)C1CCN(CCC2(c3ccc(Cl)c(Cl)c3)CN(C(=O)Cc3cc(C(F)(F)F)cc(C(F)(F)F)c3)CCO2)CC1` (centres undefined) [SSR240600], the inhibitory constant (Ki) on Substance-P receptor [6] was 1.07 nM and 1.15 nM; on Substance-K receptor [7] it was 24 nM; on Neuromedin-K receptor [1], 206 nM; on Substance-P receptor [8], 0.23 nM; at Substance-K receptor [5], 71 nM; at Substance-K receptor [9], 34 nM. The Ki is 544 nM at Neuromedin-K receptor [2], 21 nM at Neuromedin-K receptor [3] and greater than 10000 nM at Neuromedin-K receptor [4].
